# Results published in ChEMBL document CHEMBL6103581, “Identification of Thieno[3,2-d]pyrimidine derivatives as potent and selective Janus Kinase 1 inhibitors” (Eur J Med Chem, 2025).
# The source made the active and inactive calls. No cut-off for these calls is given here.
# Assays:
# [1] = target: Signal transducer and activator of transcription 3 (Homo sapiens) (UniProt P40763); experiment: Inhibition of STAT3 phosphorylation in human NCI-H1975 cells incubated for 1 hr by Western blot analysis; format: cell-based; conditions: dose 1-10 µM
# Signal transducer and activator of transcription 3 (Homo sapiens), sequence (P40763 whole entry): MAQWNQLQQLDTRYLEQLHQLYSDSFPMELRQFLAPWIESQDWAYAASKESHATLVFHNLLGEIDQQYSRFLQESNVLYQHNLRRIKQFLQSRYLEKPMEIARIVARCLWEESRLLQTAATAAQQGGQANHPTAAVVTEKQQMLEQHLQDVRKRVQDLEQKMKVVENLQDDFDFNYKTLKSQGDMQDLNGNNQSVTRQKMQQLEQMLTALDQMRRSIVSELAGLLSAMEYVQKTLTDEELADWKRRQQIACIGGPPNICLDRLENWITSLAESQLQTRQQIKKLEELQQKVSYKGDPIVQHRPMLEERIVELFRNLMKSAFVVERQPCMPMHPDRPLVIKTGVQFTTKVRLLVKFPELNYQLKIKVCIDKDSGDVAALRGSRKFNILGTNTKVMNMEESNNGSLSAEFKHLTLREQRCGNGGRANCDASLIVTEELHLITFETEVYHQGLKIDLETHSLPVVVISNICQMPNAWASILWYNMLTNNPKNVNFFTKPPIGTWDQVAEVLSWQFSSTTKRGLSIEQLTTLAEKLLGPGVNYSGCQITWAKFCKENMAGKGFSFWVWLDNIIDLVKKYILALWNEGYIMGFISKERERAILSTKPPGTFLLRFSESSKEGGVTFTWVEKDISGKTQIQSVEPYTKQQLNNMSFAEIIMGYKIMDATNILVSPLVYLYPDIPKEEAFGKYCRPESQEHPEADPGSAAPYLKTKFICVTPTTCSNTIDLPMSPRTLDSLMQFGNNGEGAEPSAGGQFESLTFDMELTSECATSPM
# HT-29 = experiment: Antiproliferative activity against human HT-29 cells overexpressing JAK1 assessed as suppression of cell growth incubated for 72 hrs by Cell-TiterGlo assay; format: functional, cell-based
# [2] = Antiproliferative activity against mouse Ba/F3-TEL-JAK1 cells assessed as cell growth inhibition incubated for 72 hrs by Cell-TiterGlo assay; format: functional
# NCI-H1975 [3] = experiment: Upregulation of STAT3 phosphorylation level in human NCI-H1975 cells; format: functional, cell-based
# NCI-H1975 [4] = experiment: Antiproliferative activity against human NCI-H1975 cells assessed as cell growth inhibition incubated for 72 hrs by Cell-TiterGlo assay; format: functional
# [5] = target: Signal transducer and activator of transcription 3 (Homo sapiens) (UniProt P40763); experiment: Inhibition of STAT3 phosphorylation in human NCI-H2087 cells incubated for 1 hr by Western blot analysis; format: cell-based; conditions: dose 1-10 µM
# NCI-H2087 [6] = experiment: Antiproliferative activity against human NCI-H2087 cells assessed as cell growth inhibition incubated for 72 hrs by Cell-TiterGlo assay; format: functional
# NCI-H2087 [7] = experiment: Inhibition of colony formation in human NCI-H2087 cells at 10 uM incubated for 14 days by crystal violet staining based 2D colony formation assay; format: functional, cell-based; conditions: time 14.0 day
# NCI-H1975 [8] = experiment: Induction of cell cycle arrest in human NCI-H1975 cells assessed as accumulation of cells at G2/M phase at 1 to 10 uM incubated for 24 hrs by propidium iodide/RNase staining based analysis; format: functional; conditions: dose 1-10 µM
# U2OS = experiment: Antiproliferative activity against human U2OS cells overexpressing JAK1 assessed as suppression of cell growth incubated for 72 hrs by Cell-TiterGlo assay; format: functional, cell-based
# NCI-H2087 [9] = experiment: Antiproliferative activity against human NCI-H2087 cells overexpressing JAK1 assessed as suppression of cell growth incubated for 72 hrs by Cell-TiterGlo assay; format: functional, cell-based
# [10] = target: T1, Tyrosine-protein kinase JAK2 (Homo sapiens, UniProt O60674); experiment: Inhibition of N-terminal GST-tagged human recombinant JAK2 (804 to end residues) extracted from baculovirus infected in Sf9 cells using IGF1Rtide as substrate preincubated for 15 min followed by substrate addition and measured after 1 hr by ADP-Glo kinase assay
# T1 sequence (O60674 whole entry): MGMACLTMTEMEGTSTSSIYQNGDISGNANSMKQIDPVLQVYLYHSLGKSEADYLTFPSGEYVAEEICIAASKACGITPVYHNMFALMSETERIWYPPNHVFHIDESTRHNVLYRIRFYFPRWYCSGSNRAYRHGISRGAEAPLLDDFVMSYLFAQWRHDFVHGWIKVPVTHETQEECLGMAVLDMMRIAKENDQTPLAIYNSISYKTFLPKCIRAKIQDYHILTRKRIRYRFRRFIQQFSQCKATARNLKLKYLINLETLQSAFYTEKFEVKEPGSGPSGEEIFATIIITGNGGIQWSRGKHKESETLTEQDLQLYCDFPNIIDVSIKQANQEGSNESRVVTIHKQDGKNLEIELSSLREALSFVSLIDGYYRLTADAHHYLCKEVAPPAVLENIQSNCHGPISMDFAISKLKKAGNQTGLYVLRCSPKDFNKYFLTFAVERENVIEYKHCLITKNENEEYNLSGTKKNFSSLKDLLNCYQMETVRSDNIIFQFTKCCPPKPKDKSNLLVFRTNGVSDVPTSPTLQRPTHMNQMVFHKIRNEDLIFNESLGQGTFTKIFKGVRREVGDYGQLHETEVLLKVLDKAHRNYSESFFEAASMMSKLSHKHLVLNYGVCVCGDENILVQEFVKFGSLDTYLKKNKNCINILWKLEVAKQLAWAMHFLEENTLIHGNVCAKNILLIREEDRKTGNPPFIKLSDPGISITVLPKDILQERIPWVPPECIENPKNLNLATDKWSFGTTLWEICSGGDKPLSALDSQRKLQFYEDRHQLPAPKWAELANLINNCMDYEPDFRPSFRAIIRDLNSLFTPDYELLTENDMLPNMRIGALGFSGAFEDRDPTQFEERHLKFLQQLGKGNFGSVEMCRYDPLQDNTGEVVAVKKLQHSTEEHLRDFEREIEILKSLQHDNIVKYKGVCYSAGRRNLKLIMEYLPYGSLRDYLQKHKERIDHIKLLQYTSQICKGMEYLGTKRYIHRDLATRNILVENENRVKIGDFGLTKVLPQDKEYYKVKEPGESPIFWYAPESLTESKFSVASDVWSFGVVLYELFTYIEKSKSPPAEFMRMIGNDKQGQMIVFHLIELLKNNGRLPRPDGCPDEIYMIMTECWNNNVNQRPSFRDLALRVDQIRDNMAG
# NCI-H1975 [11] = experiment: Antiproliferative activity against human NCI-H1975 cells overexpressing JAK1 assessed as suppression of cell growth incubated for 72 hrs by Cell-TiterGlo assay; format: functional, cell-based
# UMUC3 = experiment: Antiproliferative activity against human UMUC3 cells overexpressing JAK1 assessed as suppression of cell growth incubated for 72 hrs by Cell-TiterGlo assay; format: functional, cell-based
# BaF3 = experiment: Antiproliferative activity against mouse parental BaF3 cells assessed as cell growth inhibition incubated for 72 hrs by Cell-TiterGlo assay; format: functional
# NCI-H2087 [12] = experiment: Induction of cell cycle arrest in human NCI-H2087 cells assessed as accumulation of cells at G2/M phase at 1 to 10 uM incubated for 24 hrs by propidium iodide/RNase staining based analysis; format: functional; conditions: dose 1-10 µM
# NCI-H2087 [13] = experiment: Induction of apoptosis in human NCI-H2087 cells at 1 to 10 uM incubated for 24 hrs by Annexin V/Propidium iodide staining based analysis; format: functional, cell-based; conditions: dose 1-10 µM
# NCI-H2087 [14] = experiment: Upregulation of STAT3 phosphorylation level in human NCI-H2087 cells; format: functional, cell-based
# NCI-H1975 [15] = experiment: Inhibition of colony formation in human NCI-H1975 cells at 10 uM incubated for 14 days by crystal violet staining based 2D colony formation assay; format: functional, cell-based; conditions: time 14.0 day
# [16] = target: T2, Tyrosine-protein kinase JAK3 (Homo sapiens, UniProt P52333); experiment: Inhibition of N-terminal GST-tagged human recombinant JAK3 (781 to end residues) extracted from baculovirus infected in Sf9 cells using Poly(4:1 Glu, Tyr) as substrate preincubated for 15 min followed by substrate addition and measured after 1 hr by ADP-Glo kinase assay
# T2 sequence (P52333 whole entry): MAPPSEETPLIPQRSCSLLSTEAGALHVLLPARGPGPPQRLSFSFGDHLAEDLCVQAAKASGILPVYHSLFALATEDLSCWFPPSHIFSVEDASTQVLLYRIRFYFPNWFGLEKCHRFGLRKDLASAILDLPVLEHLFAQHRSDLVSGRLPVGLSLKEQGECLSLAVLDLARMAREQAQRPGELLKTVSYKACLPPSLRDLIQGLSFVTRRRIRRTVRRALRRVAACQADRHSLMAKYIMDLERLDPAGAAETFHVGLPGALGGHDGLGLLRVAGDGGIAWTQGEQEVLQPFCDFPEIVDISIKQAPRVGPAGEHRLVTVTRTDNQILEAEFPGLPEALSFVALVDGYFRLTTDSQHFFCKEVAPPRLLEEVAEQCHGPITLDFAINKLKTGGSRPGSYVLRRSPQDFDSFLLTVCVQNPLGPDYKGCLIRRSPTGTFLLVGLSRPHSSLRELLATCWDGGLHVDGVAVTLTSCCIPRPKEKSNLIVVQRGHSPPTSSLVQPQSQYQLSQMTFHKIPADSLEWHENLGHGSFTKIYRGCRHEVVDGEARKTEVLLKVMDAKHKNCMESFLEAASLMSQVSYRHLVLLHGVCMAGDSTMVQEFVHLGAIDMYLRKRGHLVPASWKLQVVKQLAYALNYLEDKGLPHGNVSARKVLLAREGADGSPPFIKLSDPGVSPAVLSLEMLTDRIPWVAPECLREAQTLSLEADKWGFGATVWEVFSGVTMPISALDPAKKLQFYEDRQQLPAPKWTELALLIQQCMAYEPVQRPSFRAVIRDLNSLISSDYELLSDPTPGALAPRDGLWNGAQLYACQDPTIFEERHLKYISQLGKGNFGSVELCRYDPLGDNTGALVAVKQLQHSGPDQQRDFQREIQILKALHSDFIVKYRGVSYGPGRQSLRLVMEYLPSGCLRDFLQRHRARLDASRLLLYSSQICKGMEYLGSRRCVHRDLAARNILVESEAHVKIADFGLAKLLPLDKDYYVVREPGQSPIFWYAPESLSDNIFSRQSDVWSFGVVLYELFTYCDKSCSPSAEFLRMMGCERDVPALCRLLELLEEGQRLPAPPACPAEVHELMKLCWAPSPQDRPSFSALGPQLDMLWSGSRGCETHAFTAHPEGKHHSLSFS
# HCT-116 = experiment: Antiproliferative activity against human HCT-116 cells overexpressing JAK1 assessed as suppression of cell growth incubated for 72 hrs by Cell-TiterGlo assay; format: functional, cell-based
# NCI-H1975 [17] = experiment: Induction of apoptosis in human NCI-H1975 cells at 1 to 10 uM incubated for 24 hrs by Annexin V/Propidium iodide staining based analysis; format: functional, cell-based; conditions: dose 1-10 µM
# NCI-H1975 [18] = experiment: Synergistic antiproliferative activity against human NCI-H1975 cells assessed as cell growth inhibition measured after 48 hrs in presence of osimertinib by celltiterglo analysis; format: functional, cell-based
# [19] = target: Tyrosine-protein kinase JAK1 (Homo sapiens, UniProt P23458); experiment: Inhibition of N-terminal GST-tagged human recombinant JAK1 (438 to end residues) extracted from baculovirus infected in Sf9 cells using KKHTDDGYMPMSPGVA as substrate preincubated for 15 min followed by substrate addition and measured after 1 hr by ADP-Glo kinase assay
# NCI-H1975 [20] = experiment: Inhibition of colony formation in human NCI-H1975 cells at 10 uM incubated for 14 days by crystal violet staining based 2D colony formation assay relative to control; format: functional; conditions: NCI-H1975, 336 h, time 14 day
# NCI-H2087 [21] = experiment: Inhibition of colony formation in human NCI-H2087 cells at 10 uM incubated for 14 days by crystal violet staining based 2D colony formation assay relative to control; format: functional; conditions: NCI-H2087, 336 h, time 14 day
# [22] = target: T3, Tyrosine-protein kinase JAK3 (Homo sapiens) (UniProt P52333); experiment: Inhibition of human JAK3 at 0.1 uM preincubated for 20 min followed by 33P-ATP addition measured after 2 hrs by P81 filter-binding method relative to control; conditions: time 140.0 min
# T3 sequence (whole entry): T2 sequence (P52333 whole entry)
# [23] = target: T4, Aurora kinase C (Homo sapiens) (UniProt Q9UQB9); experiment: Inhibition of human Aurora C at 0.1 uM preincubated for 20 min followed by 33P-ATP addition measured after 2 hrs by P81 filter-binding method relative to control; conditions: time 140.0 min
# T4 sequence (whole entry): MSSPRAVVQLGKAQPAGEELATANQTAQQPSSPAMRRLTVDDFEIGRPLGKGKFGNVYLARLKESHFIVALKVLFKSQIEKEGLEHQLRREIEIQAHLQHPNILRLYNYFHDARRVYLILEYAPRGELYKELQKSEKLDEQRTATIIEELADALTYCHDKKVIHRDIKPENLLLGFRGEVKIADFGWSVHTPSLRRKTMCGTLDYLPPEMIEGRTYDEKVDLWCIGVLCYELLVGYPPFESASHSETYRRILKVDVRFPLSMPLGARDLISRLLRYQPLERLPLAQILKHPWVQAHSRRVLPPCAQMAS
# [24] = target: Non-receptor tyrosine-protein kinase TYK2 (Homo sapiens) (UniProt P29597); experiment: Inhibition of human TYK2 at 0.1 uM preincubated for 20 min followed by 33P-ATP addition measured after 2 hrs by P81 filter-binding method relative to control; conditions: time 140.0 min
# Non-receptor tyrosine-protein kinase TYK2 (Homo sapiens), sequence (P29597 whole entry): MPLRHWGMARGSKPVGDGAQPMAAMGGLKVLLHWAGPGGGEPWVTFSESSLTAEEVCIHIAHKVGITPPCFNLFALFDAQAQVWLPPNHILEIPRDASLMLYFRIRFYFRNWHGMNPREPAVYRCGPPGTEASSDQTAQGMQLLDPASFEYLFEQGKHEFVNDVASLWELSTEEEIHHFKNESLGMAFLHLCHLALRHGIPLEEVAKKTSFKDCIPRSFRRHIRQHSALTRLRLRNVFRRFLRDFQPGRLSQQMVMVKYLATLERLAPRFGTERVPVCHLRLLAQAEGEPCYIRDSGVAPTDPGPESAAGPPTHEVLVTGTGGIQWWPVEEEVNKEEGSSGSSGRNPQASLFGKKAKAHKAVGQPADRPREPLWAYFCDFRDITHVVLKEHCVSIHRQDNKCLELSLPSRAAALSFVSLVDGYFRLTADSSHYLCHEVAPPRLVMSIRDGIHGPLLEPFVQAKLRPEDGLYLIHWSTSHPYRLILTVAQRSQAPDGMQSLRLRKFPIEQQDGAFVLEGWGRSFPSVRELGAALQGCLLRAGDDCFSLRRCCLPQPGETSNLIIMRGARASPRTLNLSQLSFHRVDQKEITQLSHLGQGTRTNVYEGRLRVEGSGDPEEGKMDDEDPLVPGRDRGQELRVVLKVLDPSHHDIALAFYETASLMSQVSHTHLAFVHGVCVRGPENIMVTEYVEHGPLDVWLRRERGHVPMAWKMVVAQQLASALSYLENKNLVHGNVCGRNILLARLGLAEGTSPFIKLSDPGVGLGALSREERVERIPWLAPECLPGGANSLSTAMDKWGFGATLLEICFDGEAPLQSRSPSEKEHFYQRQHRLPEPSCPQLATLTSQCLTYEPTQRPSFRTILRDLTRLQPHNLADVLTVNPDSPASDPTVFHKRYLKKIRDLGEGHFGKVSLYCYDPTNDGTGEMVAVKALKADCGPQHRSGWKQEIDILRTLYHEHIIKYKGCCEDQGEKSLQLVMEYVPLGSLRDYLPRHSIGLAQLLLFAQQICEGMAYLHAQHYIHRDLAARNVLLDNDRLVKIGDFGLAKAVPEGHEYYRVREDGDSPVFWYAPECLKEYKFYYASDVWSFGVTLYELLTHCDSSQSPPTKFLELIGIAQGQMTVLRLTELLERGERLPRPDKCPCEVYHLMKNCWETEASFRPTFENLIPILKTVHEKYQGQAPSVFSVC
# [25] = target: T1, Tyrosine-protein kinase JAK2; experiment: Inhibition of human JAK2 at 0.1 uM preincubated for 20 min followed by 33P-ATP addition measured after 2 hrs by P81 filter-binding method relative to control; conditions: time 140.0 min
# [26] = target: Receptor-type tyrosine-protein kinase FLT3 (Homo sapiens) (UniProt P36888); experiment: Inhibition of human FLT3 at 0.1 uM preincubated for 20 min followed by 33P-ATP addition measured after 2 hrs by P81 filter-binding method relative to control; conditions: time 140.0 min
# Receptor-type tyrosine-protein kinase FLT3 (Homo sapiens), sequence (P36888 whole entry): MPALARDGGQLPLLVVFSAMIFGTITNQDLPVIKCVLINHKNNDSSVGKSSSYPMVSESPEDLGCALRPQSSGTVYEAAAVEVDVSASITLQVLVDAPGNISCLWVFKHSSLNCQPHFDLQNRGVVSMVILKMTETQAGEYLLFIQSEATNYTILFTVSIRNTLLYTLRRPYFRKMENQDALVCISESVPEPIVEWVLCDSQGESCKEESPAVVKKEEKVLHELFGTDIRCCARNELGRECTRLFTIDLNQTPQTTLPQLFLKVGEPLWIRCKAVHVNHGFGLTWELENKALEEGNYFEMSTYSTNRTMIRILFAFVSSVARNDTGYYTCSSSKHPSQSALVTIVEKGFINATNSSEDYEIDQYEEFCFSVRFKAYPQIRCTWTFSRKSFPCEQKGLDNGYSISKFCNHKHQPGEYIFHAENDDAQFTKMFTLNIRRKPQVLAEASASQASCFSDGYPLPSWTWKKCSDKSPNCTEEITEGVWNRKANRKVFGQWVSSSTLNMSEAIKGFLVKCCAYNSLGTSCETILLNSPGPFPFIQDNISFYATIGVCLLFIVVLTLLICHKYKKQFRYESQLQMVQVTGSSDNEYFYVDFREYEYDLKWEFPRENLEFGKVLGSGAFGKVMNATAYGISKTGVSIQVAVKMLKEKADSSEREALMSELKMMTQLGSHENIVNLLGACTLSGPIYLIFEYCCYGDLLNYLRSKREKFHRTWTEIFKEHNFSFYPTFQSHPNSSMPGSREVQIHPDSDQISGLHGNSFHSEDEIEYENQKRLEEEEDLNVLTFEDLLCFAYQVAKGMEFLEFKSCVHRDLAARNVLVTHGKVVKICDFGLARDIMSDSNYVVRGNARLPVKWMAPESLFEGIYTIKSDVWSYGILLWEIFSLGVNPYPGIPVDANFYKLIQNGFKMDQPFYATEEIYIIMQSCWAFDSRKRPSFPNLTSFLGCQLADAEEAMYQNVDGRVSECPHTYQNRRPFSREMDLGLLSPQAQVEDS
SMILES,inhibition [1],Activity (HT-29),GI50 [2] [nM],Activity (NCI-H1975 [3]),GI50 (NCI-H1975 [4]) [nM],inhibition [5],GI50 (NCI-H2087 [6]) [nM],inhibition (NCI-H2087 [7]),Activity (NCI-H1975 [8]),Activity (U2OS),Activity (NCI-H2087 [9]),IC50 [10] [nM],Activity (NCI-H1975 [11]),Activity (UMUC3),GI50 (BaF3) [nM],Activity (NCI-H2087 [12]),Activity (NCI-H2087 [13]),IC50 [16] [nM],Activity (NCI-H1975 [17]),Activity (NCI-H1975 [18]),further results
Cc1nn(C)cc1Nc1ncc2scc(-c3cccc(NC(=O)[C@@H](C)N4CCN(C)CC4)c3)c2n1,Dose-dependent-effect,Active,450,Active,3190,Dose-dependent-effect,5650,Active,Active,Active,Active,2750,Active,Active,2910,Active,Active,4900,Active,Active,Activity (NCI-H2087 [14]): Active; inhibition (NCI-H1975 [15]): Active; Activity (HCT-116): Active
COc1nn(C)cc1Nc1nccc(-c2c[nH]c3c(NC(=O)[C@@H](C)N4CCN(C)CC4)cccc23)n1 [GOLIDOCITINIB],,,514,,36700,,40200,Active,Active,,,613,,,3670,Active,Active,1920,Active,Active,inhibition (NCI-H1975 [15]): Active; IC50 [19]: 82 nM
COc1nn(C)cc1Nc1ncc2scc(-c3cccc(NC(=O)[C@@H](C)N4CCN(CCO)CC4)c3)c2n1,Dose-dependent-effect,,193,,6670,Dose-dependent-effect,5960,,Active,,,759,,,614,Active,Active,1600,Active,Active,inhibition at 10 µM (NCI-H1975 [20]): 100%; inhibition at 10 µM (NCI-H2087 [21]): 100%
COc1nn(C)cc1Nc1ncc2scc(-c3cccc(NC(=O)[C@@H](C)N4CCN(C)CC4)c3)c2n1,Dose-dependent-effect,Active,447,Active,2460,Dose-dependent-effect,6810,,Active,Active,Active,3580,Active,Active,1450,Active,Active,4030,Active,Active,inhibition [22]: 15.5%; inhibition [23]: 83.7%; inhibition [24]: 18.1%; inhibition at 10 µM (NCI-H1975 [20]): 100%; inhibition [25]: 61.8%; Activity (NCI-H2087 [14]): Active; inhibition [26]: 82.5%; Activity (HCT-116): Active; inhibition at 10 µM (NCI-H2087 [21]): 100%
COc1nn(C)cc1Nc1ncc2scc(-c3cccc(N)c3)c2n1,,,313,,4490,,4600,,,,,154,,,1010,,,68,,,
COc1nn(C)cc1Nc1ncc2scc(-c3cccc(NC(C)=O)c3)c2n1,,,331,,> 50000,,> 44000,,,,,295,,,4160,,,50,,,
